Reference: ChEMBL document CHEMBL3621157, “Design, synthesis and biological evaluation of novel 1,2,4-triazolo and 1,2,4-triazino[4,3-a]quinoxalines as potential anticancer and antimicrobial agents” (2015)
Values after ≈ are worked out from the molar mass of the structure shown.

Assays:
Format in all cases: functional
[1] = test system: PC-3; assay: Growth inhibition of human PC3 cells incubated for 48 hrs by sulforhodamine B assay; conditions: PC-3, 48 h
[2] = test system: DU-145; assay: Growth inhibition of human DU145 cells incubated for 48 hrs by sulforhodamine B assay; conditions: DU-145, 48 h
[3] = test system: MCF7; assay: Growth inhibition of human MCF7 cells incubated for 48 hrs by sulforhodamine B assay; conditions: MCF7, 48 h
[4] = Growth inhibition of human BT549 cells incubated for 48 hrs by sulforhodamine B assay; conditions: BT-549, 48 h
[5] = test system: Escherichia coli; assay: Antimicrobial activity against Escherichia coli ATCC 11775 incubated at 37 degC for 24 hrs by cup diffusion method
[6] = test system: Candida albicans; assay: Antimicrobial activity against Candida albicans DSM 70014 incubated at 37 degC for 48 hrs by cup diffusion method
[7] = test system: Staphylococcus aureus; assay: Antimicrobial activity against Staphylococcus aureus DSM 1104 incubated for 24 hrs by two-fold serial broth dilution method; conditions: DSM 1104, 24 h
[8] = test system: Staphylococcus aureus; assay: Antimicrobial activity against Staphylococcus aureus DSM 1104 incubated for 24 hrs followed by transfer of colonies to Muller-Hinton agar plate and measured after 18 hrs by two-fold serial broth dilution method
[9] = test system: Pseudomonas aeruginosa; assay: Antimicrobial activity against Pseudomonas aeruginosa ATCC 10145 incubated for 24 hrs by two-fold serial broth dilution method; conditions: ATCC 10145, 24 h
[10] = test system: Pseudomonas aeruginosa; assay: Antimicrobial activity against Pseudomonas aeruginosa ATCC 10145 incubated for 24 hrs followed by transfer of colonies to Muller-Hinton agar plate and measured after 18 hrs by two-fold serial broth dilution method
[11] = test system: Escherichia coli; assay: Antimicrobial activity against Escherichia coli ATCC 11775 incubated for 24 hrs followed by transfer of colonies to Muller-Hinton agar plate and measured after 18 hrs by two-fold serial broth dilution method
[12] = test system: Candida albicans; assay: Antimicrobial activity against Candida albicans DSM 70014 incubated for 48 hrs followed by transfer of colonies to Muller-Hinton agar plate and measured after 18 hrs by two-fold serial broth dilution method
[13] = test system: HL-60(TB); assay: Growth inhibition of human HL-60(TB) cells at 10 uM incubated for 48 hrs by sulforhodamine B assay; conditions: HL-60, 48 h, read-out: GI
[14] = test system: K562; assay: Growth inhibition of human K562 cells at 10 uM incubated for 48 hrs by sulforhodamine B assay; conditions: K562, 48 h, read-out: GI
[15] = Growth inhibition of human MOLT4 cells at 10 uM incubated for 48 hrs by sulforhodamine B assay; conditions: MOLT-4, 48 h, read-out: GI
[16] = test system: KM12; assay: Growth inhibition of human KM12 cells at 10 uM incubated for 48 hrs by sulforhodamine B assay; conditions: KM12, 48 h, read-out: GI
[17] = Growth inhibition of human LOXIMVI cells at 10 uM incubated for 48 hrs by sulforhodamine B assay; conditions: LOX IMVI, read-out: GI
[18] = test system: A498; assay: Growth inhibition of human A498 cells at 10 uM incubated for 48 hrs by sulforhodamine B assay; conditions: A498, 48 h, read-out: GI
[19] = test system: PC-3; assay: Growth inhibition of human PC3 cells at 10 uM incubated for 48 hrs by sulforhodamine B assay; conditions: PC-3, 48 h, read-out: GI
[20] = Growth inhibition of human EKVX cells incubated for 48 hrs by sulforhodamine B assay
[21] = Growth inhibition of human HOP92 cells incubated for 48 hrs by sulforhodamine B assay; conditions: HOP-92, 48 h
[22] = test system: NCI-H322M; assay: Growth inhibition of human NCI-H322M cells incubated for 48 hrs by sulforhodamine B assay
[23] = test system: NCI-H522; assay: Growth inhibition of human NCI-H522 cells incubated for 48 hrs by sulforhodamine B assay; conditions: NCI-H522, 48 h
[24] = Growth inhibition of human COLO205 cells incubated for 48 hrs by sulforhodamine B assay; conditions: COLO 205, 48 h
[25] = test system: HCT-15; assay: Growth inhibition of human HCT15 cells incubated for 48 hrs by sulforhodamine B assay; conditions: HCT-15, 48 h
[26] = test system: SNB-19; assay: Growth inhibition of human SNB19 cells incubated for 48 hrs by sulforhodamine B assay; conditions: SNB-19, 48 h
[27] = test system: M14; assay: Growth inhibition of human M14 cells incubated for 48 hrs by sulforhodamine B assay; conditions: M14, 48 h
[28] = test system: UACC-257; assay: Growth inhibition of human UACC257 cells incubated for 48 hrs by sulforhodamine B assay; conditions: UACC-257, 48 h
[29] = test system: UACC-62; assay: Growth inhibition of human UACC62 cells incubated for 48 hrs by sulforhodamine B assay; conditions: UACC-62, 48 h
[30] = test system: OVCAR-4; assay: Growth inhibition of human OVCAR4 cells incubated for 48 hrs by sulforhodamine B assay; conditions: OVCAR-4, 48 h
[31] = test system: OVCAR-8; assay: Growth inhibition of human OVCAR8 cells incubated for 48 hrs by sulforhodamine B assay; conditions: OVCAR-8, 48 h
[32] = Growth inhibition of human NCI-ADR-RES cells incubated for 48 hrs by sulforhodamine B assay
[33] = test system: SK-OV-3; assay: Growth inhibition of human SKOV3 cells incubated for 48 hrs by sulforhodamine B assay; conditions: SK-OV-3, 48 h
[34] = test system: 786-0; assay: Growth inhibition of human 786-0 cells incubated for 48 hrs by sulforhodamine B assay; conditions: 786-0, 48 h
[35] = test system: A498; assay: Growth inhibition of human A498 cells incubated for 48 hrs by sulforhodamine B assay; conditions: A498, 48 h
[36] = test system: CAKI-1; assay: Growth inhibition of human CAKI-1 cells incubated for 48 hrs by sulforhodamine B assay; conditions: CAKI-1, 48 h
[37] = Growth inhibition of human RXF393 cells incubated for 48 hrs by sulforhodamine B assay; conditions: RXF 393, 48 h
[38] = test system: TK-10; assay: Growth inhibition of human TK10 cells incubated for 48 hrs by sulforhodamine B assay; conditions: TK-10, 48 h

Compound: Clc1ccccc1-c1nnc2c(Cc3ccccc3)nc3ccccc3n12
- GI50 [1]: 5.19 µM
- GI50 [2]: 44.2 µM
- GI50 [3]: 22.2 µM
- GI50 [4]: 6.72 µM
- inhibition zone (IZ) [5]: 10 mm
- inhibition zone (IZ) [6]: 16 mm
- MIC [7]: 100 µg/mL (≈ 270 µM)
- MBC [8]: 200 µg/mL (≈ 539 µM)
- MIC [9]: 50 µg/mL (≈ 135 µM)
- MBC [10]: 100 µg/mL (≈ 270 µM)
- MBC [11]: 50 µg/mL (≈ 135 µM)
- MFC [12]: 200 µg/mL (≈ 539 µM)
- inhibition of growth at 10 µM [13]: 46.4%
- inhibition of growth at 10 µM [14]: 78.6%
- inhibition of growth at 10 µM [15]: 60.4%
- inhibition of growth at 10 µM [16]: 51.1%
- inhibition of growth at 10 µM [17]: 60.6%
- inhibition of growth at 10 µM [18]: 61.1%
- inhibition of growth at 10 µM [19]: 60.9%
- GI50 [20]: 5.96 µM
- GI50 [21]: 3.45 µM
- GI50 [22]: 53.9 µM
- GI50 [23]: 53.9 µM
- GI50 [24]: 8.77 µM
- GI50 [25]: 1.96 µM
- GI50 [26]: 27.8 µM
- GI50 [27]: 36.7 µM
- GI50 [28]: 34.3 µM
- GI50 [29]: 7.96 µM
- GI50 [30]: 8.01 µM
- GI50 [31]: 7.21 µM
- GI50 [32]: 7.04 µM
- GI50 [33]: 23.9 µM
- GI50 [34]: 10.4 µM
- GI50 [35]: 1.8 µM
- GI50 [36]: 9.71 µM
- GI50 [37]: 8.45 µM
- GI50 [38]: 37.4 µM
